Source: patent US20210238176A1, “PESTICIDALLY-ACTIVE BICYCLIC HETEROAROMATIC COMPOUNDS” (SYNGENTA CROP PROTECTION AG, priority 2018, published 2021)

Experiments:
Assay type in all cases: in vivo
[1] = tested on: Myzus persicae (Green Peach Aphid); test: Myzus persicae systemic activity, pea seedling roots in test solution; details: 144 h, test rate 24 ppm, systemic via pea seedling roots, 6 days
Experimental: Myzus persicae (Green Peach Aphid). Systemic Activity
Roots of pea seedlings infested with an aphid population of mixed ages were placed directly into aqueous test solutions prepared from 10,000 ppm DMSO stock solutions. The samples were assessed for mortality 6 days after placing seedlings into test solutions.

[2] = tested on: Nilaparvata lugens (Brown Plant Hopper, metabolic neonicotinoid-resistant); test: Nilaparvata lugens (metabolic neonicotinoid-resistant) larvicide, feeding/contact, rice plants; details: 168 h, N3 nymphs, neonicotinoid-resistant strain, 7 days after treatment, read-out: control (mortality and growth regulation)
Experimental: Nilaparvata lugens (Brown Plant Hopper—Metabolic Neonicotinoid-Resistant), Larvicide, Feeding/Contact
Rice plants were treated with the diluted test solutions in a spray chamber. After drying, the plants were infested with ˜20 N3 nymphs. 7 days after the treatment, samples were assessed for mortality and growth regulation.

[3] = tested on: Myzus persicae (Green Peach Aphid); test: Myzus persicae (green peach aphid) feeding/contact activity, sunflower leaf discs; details: foliar, 144 h, application rate 200 ppm, aphid population of mixed ages, 6 days after infestation
Experimental: Myzus persicae (Green Peach Aphid): Feeding/Contact Activity
Sunflower leaf discs were placed onto agar in a 24-well microtiter plate and sprayed with aqueous test solutions prepared from 10,000 ppm DMSO stock solutions. After drying, the leaf discs were infested with an aphid population of mixed ages. The samples were assessed for mortality 6 days after infestation.

[4] = tested on: neonicotinoid-resistant Myzus persicae; test: Myzus persicae (neonicotinoid-resistant) mixed population, contact/feeding, pepper plants; details: 120 h, neonicotinoid-resistant strain on pepper plants, 5 days after treatment, read-out: control (mortality)
Experimental: Myzus persicae (Neonicotinoid-Resistant, Green Peach Aphid), Mixed Population, Contact/Feeding.
Pepper plants were infested with mixed aged neonicotinoid-resistant aphid population and were treated 1 day after infestation with diluted test solutions in a spray chamber. 5 days after treatment, samples were assessed for mortality.

[5] = tested on: Myzus persicae (Green Peach Aphid); test: Myzus persicae intrinsic activity, sucrose solution under Parafilm; details: 120 h, test rate 12 ppm, 5 days after infestation
Excerpt: Myzus persicae (Green Peach Aphid). Intrinsic Activity
Test compounds prepared from 10,000 ppm DMSO stock solutions were applied by pipette into 24-well microtiter plates and mixed with sucrose solution. The plates were closed with a stretched Parafilm. A plastic stencil with 24 holes was placed onto the plate and infested pea seedlings were placed directly on the Parafilm. The infested plate was closed with a gel blotting paper and another plastic stencil and then turned upside down. The samples were assessed for mortality 5 days after infestation.

[6] = tested on: Bemisia tabaci (Cotton White Fly); test: Bemisia tabaci (cotton white fly) feeding/contact activity, cotton leaf discs; details: foliar, 144 h, application rate 200 ppm, adult white flies, 6 days after incubation
Experimental: Bemisia tabaci (Cotton White Fly): Feeding/Contact Activity
Cotton leaf discs were placed on agar in 24-well microtiter plates and sprayed with aqueous test solutions prepared from 10,000 ppm DMSO stock solutions. After drying the leaf discs were infested with adult white flies. The samples were checked for mortality 6 days after incubation.

[7] = tested on: neonicotinoid-resistant Myzus persicae; test: Myzus persicae (neonicotinoid-resistant) mixed population, contact, pea seedlings; details: 120 h, neonicotinoid-resistant strain on pea seedlings, 5 days after treatment, read-out: control (mortality)
Experimental: Myzus persicae (Green Peach Aphid—Neonicotinoid-Resistant), Mixed Population, Contact
Pea seedlings infested with a mixed-aged neonicotinoid-resistant Myzus persicae population were treated with diluted test solutions in a spray chamber and checked for mortality 5 days after treatment.

[8] = tested on: neonicotinoid-resistant Bemisia tabaci; test: Bemisia tabaci (metabolic neonicotinoid-resistant) adult, cotton leaf discs; details: foliar, 96 h, 4 days after infestation, read-out: control (% adult mortality)
Experimental: Bemisia tabaci (Neonicotinoid-Resistant, Cotton Whitefly-Metabolic Neonicotinoid-Resistant), Adult.
5 cm cotton leaf discs were placed upside down in petri dishes poured out with 11 mL 0.8% water agar and applied in a turntable spraying chamber. After drying of the spray deposits, leaf discs were infested with 10 adult neonicotinoid-resistant Bemisia tabaci. Dishes were covered with a fabric filter and sealed with a perforated plastic lid. Evaluation was made 4 days after infestation on % adult mortality.

Cn1cc(-n2c3cccn(Cc4ccc(Cl)nc4)c-3nc2=O)cn1 [Compound A3, 4-[(6-chloro-3-pyridyl)methyl]-1-(1-methylpyrazol-4-yl)imidazo[4,5-b]pyridin-2-one]
≥ 80%: mortality at 24 ppm [1] | mortality at 200 ppm [2] | mortality at 200 ppm [3] | mortality at 200 ppm [4] | mortality at 12 ppm [5] | mortality at 200 ppm [6]

Cc1ccc(-n2c3cccn(Cc4ccc(Cl)nc4)c-3nc2=O)cc1 [Compound A30, 4-[(6-chloro-3-pyridyl)methyl]-1-(p-tolyl)imidazo[4,5-b]pyridin-2-one]
≥ 80%: mortality at 200 ppm [3] | mortality at 200 ppm [7] | mortality at 12 ppm [5]

CCn1cc(-n2c3cccn(Cc4ccc(Cl)nc4)c-3nc2=O)cn1 [Compound A63, 4-[(6-chloro-3-pyridyl)methyl]-1-(1-ethylpyrazol-4-yl)imidazo[4,5-b]pyridin-2-one]
≥ 80%: mortality at 200 ppm [3] | mortality at 200 ppm [4] | mortality at 200 ppm [8] | mortality at 12 ppm [5] | mortality at 200 ppm [6]

O=c1nc2n(Cc3ccc(Cl)nc3)cccc-2n1-c1cnn(C2CC2)c1 [Compound A93, 4-[(6-chloro-3-pyridyl)methyl]-1-(1-cyclopropylpyrazol-4-yl)imidazo[4,5-b]pyridin-2-one]
≥ 80%: mortality at 24 ppm [1] | mortality at 200 ppm [2] | mortality at 200 ppm [3] | mortality at 200 ppm [4] | mortality at 12 ppm [5] | mortality at 200 ppm [6]

Cc1c(-n2c3cccn(Cc4ccc(Cl)nc4)c-3nc2=O)cnn1C [Compound A92, 4-[(6-chloro-3-pyridyl)methyl]-1-(1,5-dimethylpyrazol-4-yl)imidazo[4,5-b]pyridin-2-one]
≥ 80%: mortality at 24 ppm [1] | mortality at 200 ppm [2] | mortality at 200 ppm [3] | mortality at 200 ppm [4] | mortality at 12 ppm [5] | mortality at 200 ppm [6]

O=c1nc2n(Cc3ccc(Cl)nc3)cccc-2n1-c1cnn(C(F)(F)F)c1 [Compound A80, 4-[(6-chloro-3-pyridyl)methyl]-1-[1-(trifluoromethyl)pyrazol-4-yl]imidazo[4,5-b]pyridin-2-one]
≥ 80%: mortality at 200 ppm [3] | mortality at 200 ppm [4] | mortality at 12 ppm [5] | mortality at 200 ppm [6]

O=c1nc2n(Cc3ccc(Cl)nc3)cccc-2n1-c1ccccc1 [Compound A34, 4-[(6-chloro-3-pyridyl)methyl]-1-phenyl-imidazo[4,5-b]pyridin-2-one]
≥ 80%: mortality at 24 ppm [1] | mortality at 200 ppm [2] | mortality at 200 ppm [3] | mortality at 12 ppm [5]

O=c1nc2n(Cc3ccc(Cl)nc3)cccc-2n1-c1cncc(F)c1 [Compound A26, 4-[(6-chloro-3-pyridyl)methyl]-1-(5-fluoro-3-pyridyl)imidazo[4,5-b]pyridin-2-one]
≥ 80%: mortality at 24 ppm [1] | mortality at 200 ppm [3] | mortality at 200 ppm [7] | mortality at 12 ppm [5]

Cn1ccc(-n2c3cccn(Cc4ccc(Cl)nc4)c-3nc2=O)n1 [Compound A2, 4-[(6-chloro-3-pyridyl)methyl]-1-(1-methylpyrazol-3-yl)imidazo[4,5-b]pyridin-2-one]
≥ 80%: mortality at 24 ppm [1] | mortality at 200 ppm [3] | mortality at 200 ppm [4] | mortality at 12 ppm [5]
